Laboratory results reported in patent publication US4545991A, “Difficidin and derivative antibacterials” (Merck & Co., Inc., priority 1983, dated 1985).
Values after ≈ are worked out from the molar mass of the structure shown. Like-named read-outs stand apart in the source and are kept apart here.

Experiments:
[1] = tested on: Bacteriodes fragilis Metr^r, Pen^r; test: MIC, in vitro agar dilution assay, anaerobic bacteria (Table III); type: cell-based; conditions: 10^6 CFU per spot, read-out: MIC
[2] = tested on: E. coli TEM 2^+ DC 2; test: MIC, in vitro agar dilution assay, aerobic bacteria (Table II); type: cell-based; conditions: Escherichia coli
[3] = tested on: Ps. aeruginosa; test: as above; type: cell-based; conditions: Pseudomonas aeruginosa
[4] = tested on: K. pneumoniae Kl^+; test: as above; type: cell-based; conditions: Klebsiella pneumoniae, 10^6 CFU per spot, read-out: MIC
[5] = tested on: B. fragilis Pen^r; test: MIC, in vitro agar dilution assay, anaerobic bacteria (Table III); type: cell-based; conditions: Bacteroides fragilis, 10^6 CFU per spot, read-out: MIC
[6] = tested on: Sal. typhimurium; test: MIC, in vitro agar dilution assay, aerobic bacteria (Table II); type: cell-based; conditions: Salmonella enterica, 10^6 CFU per spot, read-out: MIC
[7] = tested on: Ent. aerogenes; test: as above; type: cell-based; conditions: Klebsiella aerogenes
[8] = tested on: Ps. aeruginosa RPL 11^+; test: as above; type: cell-based; conditions: Pseudomonas aeruginosa
[9] = tested on: Ent. cloacae P99^-; test: as above; type: cell-based; conditions: Enterobacter cloacae
[10] = tested on: Prot. morganii Sm^R; test: as above; type: cell-based; conditions: Morganella morganii
[11] = tested on: Propionibacterium acnes; test: MIC, in vitro agar dilution assay, anaerobic bacteria (Table III); type: cell-based; conditions: Cutibacterium acnes, 10^6 CFU per spot, read-out: MIC
[12] = tested on: Bifidobacterium dentium Fox^r; test: as above; type: cell-based; conditions: Bifidobacterium dentium
[13] = tested on: E. coli DC 2; test: MIC, in vitro agar dilution assay, aerobic bacteria (Table II); type: cell-based; conditions: Escherichia coli, DC2
[14] = tested on: B. fragilis NCCLS control strain; test: MIC, in vitro agar dilution assay, anaerobic bacteria (Table III); type: cell-based; conditions: Bacteroides fragilis, 10^6 CFU per spot, read-out: MIC
[15] = tested on: Eubacterium limosum; test: as above; type: cell-based; conditions: 10^6 CFU per spot, read-out: MIC
[16] = tested on: Ser. marcescens; test: MIC, in vitro agar dilution assay, aerobic bacteria (Table II); type: cell-based; conditions: Serratia marcescens, 10^6 CFU per spot, read-out: MIC
[17] = tested on: S. aureus; test: as above; type: cell-based; conditions: Staphylococcus aureus, 10^6 CFU per spot, read-out: MIC
Excerpt: (§1) Further evaluations of the antibacterial spectrum of difficidin and oxydifficidin were undertaken, especially as compared to the antibacterial spectrum of the valuable antibiotic cefoxitin, which is well known for its wide spectrum of antibacterial activity. An in vitro agar dilution assay was used, inoculum 10^6 CFU per spot. Table II below illustrates the results obtained for various aerobic bacteria, and Table III illustrates the results obtained for various anaerobic bacteria.

[18] = tested on: Strep. faecalis; test: as above; type: cell-based; conditions: Enterococcus faecalis, 10^6 CFU per spot, read-out: MIC
Excerpt: as §1

[19] = tested on: E. coli; test: as above; type: cell-based; conditions: Escherichia coli, 10^6 CFU per spot, read-out: MIC
Excerpt: as §1

[20] = tested on: B. ovatus Pen^r; test: MIC, in vitro agar dilution assay, anaerobic bacteria (Table III); type: cell-based; conditions: Bacteroides ovatus, 10^6 CFU per spot, read-out: MIC
[21] = tested on: E. coli TEM 2^+; test: MIC, in vitro agar dilution assay, aerobic bacteria (Table II); type: cell-based; conditions: Escherichia coli
[22] = tested on: Peptostreptococcus anaerobius; test: MIC, in vitro agar dilution assay, anaerobic bacteria (Table III); type: cell-based; conditions: 10^6 CFU per spot, read-out: MIC
[23] = tested on: Actinomyces naeslundii; test: as above; type: cell-based; conditions: 10^6 CFU per spot, read-out: MIC
[24] = tested on: Veillonella alcalescens; test: as above; type: cell-based; conditions: Veillonella parvula, 10^6 CFU per spot, read-out: MIC
[25] = tested on: Fusobacterium mortiferum Fox^r; test: as above; type: cell-based; conditions: 10^6 CFU per spot, read-out: MIC
[26] = tested on: C. difficile Fox^r; test: as above; type: cell-based; conditions: Clostridioides difficile
[27] = tested on: S. aureus Gm^R Meth^R; test: MIC, in vitro agar dilution assay, aerobic bacteria (Table II); type: cell-based; conditions: Staphylococcus aureus
[28] = tested on: C. ramosum; test: MIC, in vitro agar dilution assay, anaerobic bacteria (Table III); type: cell-based; conditions: Thomasclavelia ramosa, 10^6 CFU per spot, read-out: MIC
[29] = tested on: B. distasonis Pen^r Fox^r; test: as above; type: cell-based; conditions: Parabacteroides distasonis, 10^6 CFU per spot, read-out: MIC
[30] = tested on: Ent. cloacae P99^+; test: MIC, in vitro agar dilution assay, aerobic bacteria (Table II); type: cell-based; conditions: Enterobacter cloacae
[31] = tested on: Prot. mirabilis Gm^R; test: as above; type: cell-based; conditions: Proteus mirabilis, 10^6 CFU per spot, read-out: MIC
[32] = tested on: B. thetaiotaomicron Clind^r, NCCLS control strain; test: MIC, in vitro agar dilution assay, anaerobic bacteria (Table III); type: cell-based; conditions: Bacteroides thetaiotaomicron, 10^6 CFU per spot, read-out: MIC
[33] = tested on: B. distasonis Pen^r Fox^r Clind^r; test: as above; type: cell-based; conditions: Parabacteroides distasonis, 10^6 CFU per spot, read-out: MIC
[34] = tested on: B. thetaiotaomicron Clind^r; test: as above; type: cell-based; conditions: Bacteroides thetaiotaomicron, 10^6 CFU per spot, read-out: MIC
[35] = tested on: Clostridium perfringens NCCLS control strain; test: microbe, parasite or virus in culture; type: cell-based; conditions: Clostridium perfringens
[36] = tested on: C. difficile Clind^r, Fox^r; test: MIC, in vitro agar dilution assay, anaerobic bacteria (Table III); type: cell-based; conditions: Clostridioides difficile, 10^6 CFU per spot, read-out: MIC
[37] = tested on: B. fragilis Clind^r Fox^r Tet^r; test: as above; type: cell-based; conditions: Bacteroides fragilis, 10^6 CFU per spot, read-out: MIC
[38] = tested on: Prot. vulgaris; test: MIC, in vitro agar dilution assay, aerobic bacteria (Table II); type: cell-based; conditions: Proteus vulgaris, 10^6 CFU per spot, read-out: MIC
[39] = tested on: Ps. aeruginosa; test: as above; type: cell-based; conditions: Pseudomonas aeruginosa; remark: listed apart in the source
[40] = tested on: Klebsiella pneumoniae MB 4005; test: standard mouse protection test, experimental systemic infection; type: in vivo, CD1 female mice; conditions: Klebsiella pneumoniae, MB4005, ip, 168 h, × 2 i.p. doses (immediately after infection and 6 hours later), 7 days
Description: The antibacterial efficacy of difficidin and its derivatives was further determined in standard mouse protection tests. An experimental systemic infection was produced in CD1 female mice (Charles River Breeding Laboratories, Wilmington, MA) by the intraperitoneal injection of a suitably diluted broth culture of Klebsiella pneumoniae MB 4005. The test antibacterial compounds and the control drug (streptomycin) were administered parenterally (intraperitoneally) immediately after infection and again 6 hours later. At least 4 fourfold dilutions of each agent were tested. There were 5 mice at each dose level. […] Under the conditions of the test, all infected untreated mice died within 48 hours.
Mice were protected by the administration of the test antibacterial compounds or streptomycin at the median effective doses shown in Table IV below.

CO[C@@]1(NC(=O)Cc2cccs2)C(=O)N2C(C(=O)O)=C(COC(N)=O)CS[C@@H]21 [Cefoxitin, cefoxitin, reference compound]
MIC [1]: 2 µg/mL (≈ 4.68 µM)
MIC [2]: 1 µg/mL (≈ 2.34 µM)
MIC [3]: > 128 µg/mL
MIC [4]: 4 µg/mL (≈ 9.36 µM)
MIC [5]: 8 µg/mL (≈ 18.7 µM)
MIC [6]: 8 µg/mL (≈ 18.7 µM)
MIC [7]: > 128 µg/mL
MIC [8]: > 128 µg/mL
MIC [9]: 16 µg/mL (≈ 37.4 µM)
MIC [10]: 16 µg/mL (≈ 37.4 µM)
MIC [11]: ≤ 0.008 µg/mL
MIC [12]: 4 µg/mL (≈ 9.36 µM)
MIC [13]: 1 µg/mL (≈ 2.34 µM)
MIC [14]: 4 µg/mL (≈ 9.36 µM)
MIC [15]: 0.25 µg/mL (≈ 0.585 µM)
MIC [16]: 64 µg/mL (≈ 150 µM)
MIC ([17]; first unmarked strain): 2 µg/mL (≈ 4.68 µM)
MIC ([17]; second unmarked strain): 2 µg/mL (≈ 4.68 µM)
MIC [18]: > 128 µg/mL
MIC [19]: > 128 µg/mL
MIC [20]: 8 µg/mL (≈ 18.7 µM)
MIC [21]: 4 µg/mL (≈ 9.36 µM)
MIC [22]: ≤ 0.008 µg/mL
MIC [23]: 0.015 µg/mL (≈ 0.0351 µM)
MIC [24]: 0.5 µg/mL (≈ 1.17 µM)
MIC [25]: 16 µg/mL (≈ 37.4 µM)
MIC [26]: 128 µg/mL (≈ 299 µM)
MIC [27]: > 128 µg/mL
MIC [28]: 4 µg/mL (≈ 9.36 µM)
MIC [29]: 64 µg/mL (≈ 150 µM)
MIC [30]: > 128 µg/mL
MIC [31]: 32 µg/mL (≈ 74.9 µM)
MIC [32]: 16 µg/mL (≈ 37.4 µM)
MIC [33]: 16 µg/mL (≈ 37.4 µM)
MIC [34]: 16 µg/mL (≈ 37.4 µM)
MIC [35]: 0.5 µg/mL (≈ 1.17 µM)
MIC [36]: 64 µg/mL (≈ 150 µM)
MIC [37]: 32 µg/mL (≈ 74.9 µM)
MIC [38]: 16 µg/mL (≈ 37.4 µM)
MIC [39]: > 128 µg/mL

[H]/N=C(/N)N[C@H]1[C@H](O)[C@@H](O)[C@H](O[C@@H]2O[C@@H](C)[C@](O)(C=O)[C@H]2O[C@@H]2O[C@@H](CO)[C@H](O)[C@@H](O)[C@@H]2NC)[C@@H](N/C(N)=N\[H])[C@@H]1O [Streptomycin, streptomycin, reference compound]
ED50 ([40]; Test No. 1): 0.38 mg/kg
ED50 ([40]; Test No. 2): 1.41 mg/kg
ED50 ([40]; Test No. 3): 0.38 mg/kg
